Results: US20250002991A1, “METHODS AND COMPOSITIONS FOR GENOME EDITING” (THE JOHNS HOPKINS UNIVERSITY, priority 2021, published 2025)

Experiments:
[1] = tested on: MRE11 recruitment at the Cas9 target site (VEGFA site 3 on-target site; HEK293T, K562); assay: MRE11 ChIP-qPCR at Cas9 target sites after exposure to DNA repair inhibitors; assay type: cell-based, human; settings: for MRE11 recruitment at the target site (ChIP-qPCR): Cas9 with gRNA targeting VEGFA site 3, HEK293T, 12 hours, 1 μM KU-60648, 20 µM Nu7026, 10 μM Ku-55933, 1 μM Scr7, 10 μM Olaparib
Text: (§1) The supernatant was decanted.

Cas9 editing of ACTB = assay: Sequencing of insertion-deletion mutations (indels) after Cas9 targeting ACTB; assay type: cell-based; settings: 48 hours after Cas9 editing; especially +1 insertions reduced in favor of larger -3 deletions
Experimental: Genomic DNA was extracted using the DNeasy Blood & Tissue Kit (Qiagen 69504) following manufacturer instructions. Approximately 1 million cells were used from cell lines and iPSCs. Approximately 10-20 μL of mouse liver cell suspension was used out of 1.5 mL total, and the genome extraction protocol included the Buffer ATL step since this sample is tissue.
Genomic DNA samples were amplified with PCR using Q5 Hot Start High-Fidelity 2X Master Mix (New England BioLabs M0494). For example, the primer set for amplifying around the FANCF site 2 on-target site is NGS_FANCFs2_ON_F and NGS_FANCFs2_ON_R. After amplicon PCR, cleanup was performed using 1.4×AMPure XP (Beckman Coulter A63881) following the manufacturer's instructions. Dual-indexing PCR was performed using KAPA HiFi HotStart ReadyMix (Roche 07958935001) and PCR cleanup was performed using 1×AMPure XP. Samples were quantified using QuBit (Thermo Fisher Scientific), pooled, diluted, and loaded onto a MiSeq (Illumina). […]
Sequencing reads were either demultiplexed automatically using MiSeq Reporter (Illumina) or with a custom Python script to individual FASTQ files. For indel calling, sequencing reads were scanned for exact matches to two 20-bp sequences that flank +/−20 bp from the ends of the target sequence. If no exact matches were found, the read was excluded from analysis. […]

[2] = tested on: MRE11 at Cas9 PCSK9 target sites in mouse liver; assay: DISCOVER-Seq+ in liver of mice given adenovirus Cas9/gRNA targeting PCSK9; assay type: in vivo, mouse (C57BL/6J)
Experimental: For in vivo gene delivery, 8-10 week old mice were anesthetized with 2.5% isofluorane/oxygen mixture. Mice received a single retro-orbital injection of 1×10^9 infectious adenoviral particles (Ad-Cas9-U6-mPCSK9-sgRNA) in 100 μL sterile saline. Immediately following, mice received intraperitoneal delivery of KU-60648 dosed at 25 mg/kg (or vehicle only) in 100 μL of citrate buffer, or 100 μL of citrate buffer vehicle. Mice received a dose of KU-60648 or vehicle every 12 hrs via intraperitoneal injection.
At the experimental endpoint of 12 h, mice were anesthetized with isofluorane and euthanized via cervical dislocation. Liver tissue was harvested, washed 3× in 2 mL PBS with 1× protease inhibitor (Halt™ Protease Inhibitor Cocktail, Thermo), then disrupted the tissue in 1 mL PBS with 1× protease inhibitor using a loose-fitting Dounce homogenizer. For MRE11 ChIP-seq, homogenized tissue was placed on ice and used immediately.
as §1

[3] = tested on: MRE11 at Cas9 TRA target sites in primary human T-cells; assay: DISCOVER-Seq+ in primary human T-cells with Cas9 targeting TRA (CAR knock-in); assay type: cell-based
Text: as §1

[4] = tested on: MRE11 at Cas9 on- and off-target sites in K562 cells; assay: MRE11 ChIP-seq with BLENDER off-target detection (DISCOVER-Seq+) in K562 cells; assay type: cell-based, human
Text: as §1

[5] = previous evaluation, ref [21]; cited from earlier work
[6] = tested on: 53BP1 and BRCA1 foci in U2OS cells stably expressing Cas9-EGFP; assay: Super-resolution STED microscopy of 53BP1 and BRCA1 repair foci after Cas9-induced DNA breaks; assay type: cell-based
Experimental: U2OS cells stably expressing Cas9-EGFP cells were seeded onto 35-mm, glass bottom dishes and transfected with mtgRNAs for 12-24 hrs. Cleavage was activated by UV light for 1 minute. To fix cells, 4% of pre-warmed paraformaldehyde in 1×PBS was used for 10 min. After rinsing 3 times with 1×PBS, cell membrane permeabilization was done with Triton-X used for 10 min. Then, cells 2% w/v BSA in 1×PBS was used for blocking for 1 hr and at room temperature. The primary antibodies, mouse anti-BRCA1 (D-9 sc-6954 Santa Cruz) and anti-53bpl (Abcam, ab172580), were diluted (1:500) in 1×PBS and directly added into the imaging dish. After 1 hr incubation, the primary antibody was removed, and the sample was washed with 1×PBS three times. The samples were then incubated for 30 minutes with the secondary antibodies Alexa-594 and Atto-647N diluted (1:1000) in 1×PBS. Finally, the sample was rinsed three times and mounted with Prolong Diamond mounting media (Thermo Fisher Scientific) overnight.
All STED images were obtained using a home-built two-color STED microscope (Han and Ha, 2015: Ma and Ha, 2019). In short, a femtosecond laser beam with a repetition rate of 80 MHz from a Ti: Sapphire laser head (Mai Tai HP, Spectra-Physics) is split into two parts: one part produces an excitation beam coupled into a photonic crystal fiber (Newport) for wide-spectrum light generation. […]

## O=c1cc(-c2cccc3c2Sc2ccccc2S3)oc(N2CCOCC2)c1 [Ku-55933]
[1]
  MRE11 recruitment at the target site (ChIP-qPCR): did not exhibit a clear effect

## CCN1CCN(CC(=O)Nc2ccc(-c3cccc4c(=O)cc(N5CCOCC5)oc34)c3sc4ccccc4c23)CC1 [Ku-60648, 2-(4-ethylpiperazin-1-yl)-N-[4-(2-morpholin-4-yl-4-oxochromen-8-yl)dibenzothiophen-1-yl]acetamide]
Cas9 editing of ACTB
  indel editing after Cas9 targeting ACTB: reduction in editing
[2]; 25 mg/kg b.i.d., mouse liver (18 sites with vehicle), p<0.05
  average number of target sites identified across 5 biological replicates: 27
[2]; 25 mg/kg b.i.d., mouse liver (51 with vehicle)
  target sites identified, sequencing reads pooled across all 5 replicates: 101
[2]; 25 mg/kg peritoneal b.i.d., versus without DNA-PKcs inhibition, p<1E-4
  MRE11 ChIP-seq signal in liver: significantly increased MRE11 ChIP-seq signal
[3]; Cas9 targeting TRA, 12 hours (4 with DISCOVER-Seq)
  off-target sites identified genome-wide: 20
[3]; Cas9 targeting TRA, versus DISCOVER-Seq without drug
  MRE11 enrichment at all discovered sites: significantly greater MRE11 enrichment
[3]; samples without Cas9
  MRE11 enrichment in samples without Cas9 (negative control): did not exhibit any change in enrichment
[4]; K562, 12 hours after Cas9 delivery, FANCF site 2 or VEGFA site 2 gRNA, p<1E-3
  MRE11 ChIP-seq enrichment at all discovered on- and off-target sites: significantly increased MRE11 ChIP-seq enrichment
[4]; VEGFA site 2 gRNA, K562
  fold increase in discovered Cas9 target sites versus without DNA-PKcs inhibition: over 5 fold
[4]; VEGFA site 2 gRNA, K562, with DNA-PKcs inhibition (36 sites without)
  total Cas9 target sites discovered: 181
[5]
  penetration into tissue: strongly penetrations into tissue including tumors
  pharmacokinetics: good pharmacokinetics
[6]; Cas9 with multi-target gRNA targeting over 100 locations
  53BP1 foci relative to BRCA1: reduction in 53BP1 foci relative to BRCA1
[6]; without Cas9
  number of 53BP1 and BRCA1 foci in the absence of Cas9 (DNA damage by inhibitor alone): did not change the number of 53BP1 and BRCA1 foci
[1]
  MRE11 recruitment at the target site (ChIP-qPCR): significantly increased MRE11 recruitment
[1]; VEGFA site 2 (4 h, 12 h, 24 h) and HEK site 4 in HEK293T, FANCF site 2 in K562, versus without inhibitor, p=0.0001, n=14
  estimated RPM enrichment normalized to the no drug sample (MRE11 ChIP-qPCR): significantly higher

## O=c1cc(N2CCOCC2)oc2c1ccc1ccccc12 [Nu7026, 2-(morpholin-4-yl)benzo (h) chromen-4-one]
[1]
  MRE11 recruitment at the target site (ChIP-qPCR): significantly increased MRE11 recruitment

## O=C(c1cc(Cc2n[nH]c(=O)c3ccccc23)ccc1F)N1CCN(C(=O)C2CC2)CC1 [Olaparib]
[1]
  MRE11 recruitment at the target site (ChIP-qPCR): did not exhibit a clear effect

## O=c1[nH]c(=S)[nH]c(N=Cc2ccccc2)c1N=Cc1ccccc1 [Scr7]
[1]
  MRE11 recruitment at the target site (ChIP-qPCR): suppressed MRE11 recruitment
